“Also recorded” adds a separate entry of the source. Read-outs that look alike come from different tables or passages of the source.
Experiments:
[1] = test system: pan-resistant Klebsiella pneumoniae isolate Nevada-2016; assay type: cell-based
Method: (§1) Population analysis profile. Population analysis profiles (PAPs) were conducted. Briefly, solid agar plates were made for each antibiotic at 7 concentrations containing 0, 0.125, 0.25, 0.5, 1, 2 and 4 times the breakpoint, using Mueller Hinton agar. Breakpoint concentrations for Enterobacteriaceae from CLSI (amikacin 64 ug/mL, gentamicin 16 ug/mL, tobramycin 16 ug/mL, ampicillin 32 ug/mL, aztreonam 16 ug/mL, cefazolin 32 ug/mL, cefepime 16 ug/mL, ceftazidime 16 ug/mL, meropenem 4 ug/mL, piperacillin/tazobactam 128/4 ug/mL, ciprofloxacin 1 ug/mL, fosfomycin 256 ug/mL (breakpoint for UPEC; 25 mg/L glucose-6-phosphate added to the media), tetracycline 16 ug/mL, trimethoprim/sulfamethoxazole 4/76 ug/mL), FDA (tigecycline 8 ug/mL), or EUCAST (colistin 4 ug/mL) were used. Dual PAPs were made similarly, with both drugs in each plate at the same multiple of their respective breakpoint (0, 0.125, 0.25, 0.5, 1, 2, 4 times the breakpoint). Isolates to be tested were grown up overnight in Mueller Hinton broth from a single colony isolated from a frozen stock. Serial microdilutions were plated at each concentration of antibiotic. Colonies were enumerated after overnight growth at 37° C. An isolate was classified as resistant if the number of colonies that grew at the breakpoint concentration were at least 50% of those that grew on antibiotic free plates. If an isolate was not resistant, it was classified as heteroresistant if the number of colonies that grew at 2 or 4 times the breakpoint were at least 0.0001% (1 in 10^6) of those that grew on antibiotic free plates. If isolates were neither classified as resistant or heteroresistant, they were classified as susceptible.

[2] = test system: pan-resistant Klebsiella pneumoniae isolate AR0040; assay type: cell-based; conditions: amikacin 64 μg/mL; piperacillin 256 μg/mL tazobactam 4 μg/mL
Method: (§2) Time kills. Time kills were conducted. Briefly, 10^6 CFU/mL bacteria from an overnight culture were inoculated into 2 mL MH media in culture tubes (Globe Scientific) with and without antibiotic(s). The following concentrations were used: colistin 16 μg/mL, ceftazidime 128 μg/mL, fosfomycin 256 μg/mL (+25 mg/L Glucose-6-Phosphate (G6P)), ampicillin 128 μg/mL (FIG. 1e-h and Supplementary FIG. 2), fosfomycin 256 μg/mL (+25 mg/L G6P), trimethoprim 4 μg/mL sulfamethoxazole 76 μg/mL, amikacin 64 μg/mL, and piperacillin 256 μg/mL tazobactam 4 μg/mL (FIGS. 5C, D, G, H). Cultures were incubated at 37° C. shaking at 250 RPM for 1-48 hours. CFU were determined by serial diluting bacteria in PBS prior to plating on MH agar plates at various timepoints in the assay (0, 1, 2, 4, 6, 8, 10, 24, and 48 hour timepoints were used for time-kills). In FIG. 1E-H, serially diluted bacteria were also plated on MH agar plates with antibiotic added (colistin 16 μg/mL, ceftazidime128 μg/mL, fosfomycin 256 μg/mL(+25 mg/L G6P), and ampicillin 128 μg/mL). In FIGS. 5D, H culture tubes were imaged with a Canon EOS Rebel T3i.

[3] = test system: carbapenem-resistant Enterobacteriaceae (CRE) clinical isolates; experiment: PAP screen of 104 CRE clinical isolates for heteroresistance to 16 antibiotics; assay type: cell-based; conditions: 104 CRE isolates
Method: as §1, with “If an isolate was not resistant, it was classified as heteroresistant if the number of colonies that grew at 2 or 4 times the breakpoint were at least 0.0001% (1 in 10^6) of those that grew on antibiotic free plates. If isolates were neither classified as resistant or heteroresistant, they were classified as susceptible.” left out

[4] = test system: Enterobacter cloacae isolate Mu208; assay type: cell-based; conditions: for resistance status of Mu208 by PAP: Mueller Hinton agar, 0-4 times the breakpoint
Method: as §1

Mu1176 = experiment: Control isolate Mu1176, resistance designation; assay type: cell-based
Source text: (§3) Bacterial isolates. Enterobacter cloacae isolate Mu208 was isolated from a urine sample at an Atlanta area hospital. […] Carbapenem-resistant Enterobacteriaceae (CRE) were collected between 2013 and 2015 by the Georgia EIP MuGSI. The CDC for provided pan-resistant Klebsiella pneumoniae isolates AR0040 and Nevada-2016.

Mu661 = experiment: Control isolate Mu661, resistance designation; assay type: cell-based
Source text: as §3

[5] = test system: Enterobacter cloacae isolate Mu208; experiment: Frequency of resistant subpopulations of Mu208 on antibiotic treatment and after subculture without antibiotic; assay type: cell-based; conditions: for frequency of the respective resistant subpopulation on treatment: in the presence of the antibiotic; for frequency of resistant subpopulation upon subculture in the absence of antibiotic: antibiotic-free subculture
[6] = test system: Enterobacter cloacae isolate Mu208; assay type: cell-based; conditions: for initial reduction in bacterial levels: ceftazidime 128, ampicillin 128 μg/mL
Method: as §2

Mu712 = test system: Mu712
Source text: as §3

Mu819 = experiment: Susceptible control isolate Mu819 (designation, PAP, time kill); assay type: cell-based
Method: as §3, §1
as §2, with “Cultures were incubated at 37° C. shaking at 250 RPM for 1-48 hours.” left out, “In FIG. 1E-H, serially diluted bacteria were also plated on MH agar plates with antibiotic added (colistin 16 μg/mL, ceftazidime128 μg/mL, fosfomycin 256 μg/mL(+25 mg/L G6P), and ampicillin 128 μg/mL). In FIGS. 5D, H culture tubes were imaged with a Canon EOS Rebel T3i.” left out

[7] = test system: pan-resistant Klebsiella pneumoniae isolate Nevada-2016; assay type: cell-based; conditions: breakpoint concentration
Method: as §2

Mu208 ΔphoQ = experiment: Resistant subpopulations in the Mu208 phoQ deletion mutant; assay type: cell-based, Enterobacter cloacae; conditions: compared with parental Mu208
Source text: Colistin heteroresistance in Enterobacter requires the two-component system histidine kinase PhoQ which we deleted from Mu208 to test whether colistin heteroresistance was linked to ceftazidime or fosfomycin heteroresistance.
Cloning and mutagenesis. Mu208 ΔphoQ was generated by lambda red recombination. Briefly, a kanamycin cassette flanked by FRT sites with homology to the regions directly upstream and downstream, respectively, of the phoQ open reading frame (ORF) was inserted into the phoQ ORF in Mu208 with pKD46-tet, prior to it being removed with a flp recombinase encoded on the temperature sensitive plasmid, PCP20.

[8] = colistin 16, ceftazidime 128, fosfomycin 256 μg/mL

| Molecule | proportion of the isolates exhibiting heteroresistance [3] [%] | resistance status of Mu208 by PAP [4] | resistance designation of control isolate Mu1176 (Mu1176) | frequency of the respective resistant subpopulation on treatment [5] | initial reduction in bacterial levels ([6]; single antibiotic) | activity in combination with ampicillin [4] | frequency of resistant subpopulation upon subculture in the absence of antibiotic [5] | activity in combination with ampicillin [6] | concentration at which the resistant subpopulation survived ([4]; PAP) [fold the breakpoint] | resistance designation of control isolate Mu819 (Mu819) | behaviour of resistant subpopulation / outgrowth in the presence of the single antibiotic [6, 8] | further results |
| --- | --- | --- | --- | --- | --- | --- | --- | --- | --- | --- | --- | --- |
| NCC[C@H](O)C(=O)N[C@@H]1C[C@H](N)[C@@H](O[C@H]2O[C@H](CN)[C@@H](O)[C@H](O)[C@H]2O)[C@H](O)[C@H]1O[C@H]1O[C@H](CO)[C@@H](O)[C@H](N)[C@H]1O [amikacin] | – | – | – | – | – | – | – | – | – | – | – | resistance status of Nevada-2016 by PAP [1]: homogenous resistance; initial killing of AR0040 by single drug [2]: significant initial killing |
| CC1(C)S[C@@H]2[C@H](NC(=O)[C@H](N)c3ccccc3)C(=O)N2[C@H]1C(=O)O [ampicillin] | 1.0 | homogenous resistance | resistant | constant | did not lead to the initial reduction in bacterial levels | – | – | – | – | – | – | killing of cells in PAP ([4]; any of the concentrations tested): lack of significant killing; resistance designation of control isolate Mu661 (Mu661): susceptible |
| CC(C)(O/N=C(\C(=O)N[C@@H]1C(=O)N2C(C(=O)[O-])=C(C[n+]3ccccc3)CS[C@H]12)c1csc(N)n1)C(=O)O [ceftazidime] | – | heteroresistance | resistant | robust increase | killing was delayed | not enhanced | returned to the baseline levels | not enhanced | – | – | – | concentration at which the resistant subpopulation survived [4]: 4 fold the breakpoint; resistance designation of control isolate Mu712 (Mu712): susceptible; behaviour of resistant subpopulation / outgrowth in the presence of the single antibiotic [6]: rapidly increased in number; also recorded: unable to prevent subsequent outgrowth |
| C[C@@H]1O[C@@H]1P(=O)(O)O [fosfomycin] | 72.1 | heteroresistance | resistant | robust increase | – | not enhanced | returned to the baseline levels | not enhanced | 4 | susceptible | rapidly increased in number; also recorded: unable to prevent subsequent outgrowth | killing of Nevada-2016 by single antibiotic [7]: killing of a significant proportion of the bacteria |
| colistin | – | heteroresistance | resistant | robust increase | – | – | returned to the baseline levels | – | 4 | susceptible | expanded exponentially | MIC of resistant subpopulation relative to the susceptible cells in the population ([4]; PAP): at least 32 fold; Mu208 cells killed by a concentration below the clinical breakpoint ([4]; PAP): Roughly 4 logs; activity in combination with ampicillin ([4]; dual PAP with ampicillin): not enhanced; killing of representative susceptible isolate in PAP (Mu819; concentration below the breakpoint, isolate not named at b160, Mu819): all the cells of a representative susceptible isolate were killed; outcome of treatment of a susceptible strain in time kill (Mu819; strain not named at b162, Mu819): eradicated; behaviour of resistant subpopulation / outgrowth in the presence of the single antibiotic ([6]; colistin 16, ceftazidime 128, fosfomycin 256 μg/mL, listed as Colistin): unable to prevent subsequent outgrowth; time within which the susceptible cells were killed ([6]; single antibiotic, colistin 16 μg/mL): one; activity in combination with ampicillin ([6]; time-kill with ampicillin): not enhanced; resistant subpopulation in the phoQ mutant (Mu208 ΔphoQ): absent |
